Results: patent US9994594B2, “Inhibitors of arginase and their therapeutic applications” (MARS, INCORPORATED, priority 2010, dated 2018)
Structures can show the parent of a compound that is named as a salt.

What was measured:
human arginase I (ARG I) = molecular target: T1, human arginase I (ARG I) (Homo sapiens, UniProt P05089); assay: Inhibition of arginase I, spectrophotometric urea assay at 530 nm; assay type: biochemical; conditions: Formula II compounds, Table 2-A; read-out: Potency (ARG I)
T1 sequence (P05089 1-322): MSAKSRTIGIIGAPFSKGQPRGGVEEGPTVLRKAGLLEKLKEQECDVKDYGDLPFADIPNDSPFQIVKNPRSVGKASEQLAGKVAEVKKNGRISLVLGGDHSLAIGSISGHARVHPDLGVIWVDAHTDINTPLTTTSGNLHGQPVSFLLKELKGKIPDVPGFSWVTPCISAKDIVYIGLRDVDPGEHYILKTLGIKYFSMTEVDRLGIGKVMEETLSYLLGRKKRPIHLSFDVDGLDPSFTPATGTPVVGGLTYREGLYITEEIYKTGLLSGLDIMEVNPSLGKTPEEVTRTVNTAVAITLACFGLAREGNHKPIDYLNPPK
Method: (§1) The assay established the concentration of inhibitor that is required to reduce arginase activity by 50% (IC50).
(§2) Inhibition of arginase I (ARG I) and arginase II (ARG II) by Formula I and Formula II compounds is followed spectrophotometrically at 530 nm. The compound to be tested is dissolved in DMSO at an initial concentration 50-fold greater than its final concentration in the cuvette. 10 μl of the stock solution is diluted in 90 μl of the assay buffer that comprises 0.1M sodium phosphate buffer containing 130 mM NaCl, pH 7.4, to which is added ovalbumin (OVA) at a concentration of 1 mg/ml. Solutions of arginase I and II are prepared in 100 mM sodium phosphate buffer, pH 7.4 containing 1 mg/ml of OVA to give an arginase stock solution at a final concentration of 100 ng/ml.
(§3) To each well of a 96-well microtiter plate is add 40 μl of enzyme, 10 μl of an inventive compound and 10 μl of enzyme substrate (L-arginine+manganese sulfate). For wells that are used as positive controls, only the enzyme and its substrate are added, while wells used as negative controls contain only manganese sulfate.
(§4) After incubating the microtiter plate at 37° C. for 60 minutes, 150 μl of a urea reagent obtained by combining equal proportions (1:1) of reagents A and B is added to each well of the microtiter plate to stop the reaction. The urea reagent is made just before use by combining Reagent A (10 mM o-phthaldialdehyde, and 0.4% polyoxyethylene (23) lauryl ether (w/v) in 1.8 M sulfuric acid) with Reagent B (1.3 mM primaquine diphosphate, 0.4% polyoxyethylene (23) lauryl ether (w/v), 130 mM boric acid in 3.6 M sulfuric acid). After quenching the reaction mixture, the microtiter plate is allowed to stand for an additional 10 minutes at room temperature to allow color development. The inhibition of arginase is computed by measuring the optical density (OD) of the reaction mixture at 530 nm and normalizing the OD value to percent inhibition observed in the control. The normalized OD is then used to generate a dose-response curve by plotting the normalized OD values against log [concentration] and using regression analysis to compute the IC50 values.

arginase II (ARG II) = molecular target: T2, arginase II (ARG II) (Homo sapiens, UniProt P78540); assay: Inhibition of arginase II, spectrophotometric urea assay at 530 nm; assay type: biochemical; conditions: Formula II compounds, Table 2-A; read-out: Potency (ARG)
T2 sequence (P78540 23-354): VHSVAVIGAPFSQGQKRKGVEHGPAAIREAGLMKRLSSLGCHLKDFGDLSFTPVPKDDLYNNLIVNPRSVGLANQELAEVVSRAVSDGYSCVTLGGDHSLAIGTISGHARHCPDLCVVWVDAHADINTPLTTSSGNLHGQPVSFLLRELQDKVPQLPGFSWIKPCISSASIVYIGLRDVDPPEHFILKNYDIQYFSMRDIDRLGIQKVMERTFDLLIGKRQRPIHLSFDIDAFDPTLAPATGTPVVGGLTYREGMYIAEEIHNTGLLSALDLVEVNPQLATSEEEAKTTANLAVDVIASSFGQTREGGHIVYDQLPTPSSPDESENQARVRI
Method: as §1, §2, §3, §4

SMILES | IC50 (human arginase I (ARG I)) [nM] | IC50 (arginase II (ARG II)) [nM]
NC(CCCCB(O)O)(C(=O)O)C1CNC1 (centres unmarked) [18-A, 2-amino-2-(azetidin-3-yl)-6-boronohexanoic acid dihydrochloride] | 2000 to 5000 | 2000 to 5000
NC(CCCCB(O)O)(C(=O)O)C1CNCCO1 (centres unmarked) [19-A, 2-amino-6-borono-2-(morpholin-2-yl)hexanoic acid dihydrochloride] | 2000 to 5000 | 2000 to 5000
NC(CCCCB(O)O)(C(=O)O)C1CCN(C(=O)c2ccc(Cl)cc2)CC1 (centres unmarked) [26-A, 2-amino-6-borono-2-[1-(4-chlorobenzoyl)piperidin-4-yl]hexanoic acid hydrochloride] | 2000 to 5000 | 2000 to 5000
CC(=O)N1CCC(C(N)(CCCCB(O)O)C(=O)O)CC1 (centres unmarked) [27-A, 2-amino-6-borono-2-[1-acetylpiperidin-4-yl]hexanoic acid hydrochloride] | 2000 to 5000 | 2000 to 5000
NC(CCCCB(O)O)(C(=O)O)C1CCN(C(=O)Cc2ccc(F)cc2)CC1 (centres unmarked) [28-A, 2-amino-6-borono-2-{1-[(4-fluorophenyl)acetyl]-piperidin-4-yl}hexanoic acid hydrochloride] | 2000 to 5000 | 2000 to 5000
NC(CCCCB(O)O)(C(=O)O)C1CCN(C(=O)Cc2ccc(Cl)cc2)CC1 (centres unmarked) [29-A, 2-amino-6-borono-2-{1-[(4-chlorophenyl)acetyl]-piperidin-4-yl}hexanoic acid hydrochloride] | 1000 to 2000 | > 5000
NC(CCCCB(O)O)(C(=O)O)C1CCN(C(=O)c2ccccc2)CC1 (centres unmarked) [30-A, 2-amino-6-borono-2-[1-benzoylpiperidin-4-yl]hexanoic acid hydrochloride] | 2000 to 5000 | 2000 to 5000
NC(CCCCB(O)O)(C(=O)O)C1CCN(C(=O)NCc2ccc(Cl)cc2)CC1 (centres unmarked) [31-A, 2-amino-6-borono-2-{1-[(4-chlorobenzyl)carbamoyl]-piperidin-4-yl}hexanoic acid hydrochloride] | 1000 to 2000 | 2000 to 5000
NC(CCCCB(O)O)(C(=O)O)C1CCN(C(=O)NCCc2ccc(F)cc2)CC1 (centres unmarked) [33-A, 2-amino-6-borono-2-(1-{[2-(4-fluorophenyl)ethyl]-carbamoyl}piperidin-4-yl)hexanoic acid hydrochloride] | 1000 to 2000 | 1000 to 2000
NC(CCCCB(O)O)(C(=O)O)C1CCN(C(=O)Nc2ccc(Cl)cc2)C1 [36-A, 2-amino-6-borono-2-((S)-1-(4-chlorophenylcarbamoyl)pyrrolidin-3-yl)hexanoic acid hydrochloride] | 251 to 1000 | 2000 to 5000
Cc1ccc(CN2CC[C@@H](C(N)(CCCCB(O)O)C(=O)O)C2)cc1 (stereo partly drawn) [Example 39-A, 2-Amino-6-borono-2-((R)-1-(4-methylbenzyl)pyrrolidin-3-yl)hexanoic acid dihydrochloride] | 251 to 1000 | 251 to 1000
NC(CCCCB(O)O)(C(=O)O)[C@@H]1CCN(S(=O)(=O)c2ccccc2[N+](=O)[O-])C1 (stereo partly drawn) [Example 40-A, 2-amino-6-borono-2-((R)-1-(2-nitrophenylsulfonyl)pyrrolidin-3-yl)hexanoic acid] | 251 to 1000 | 251 to 1000
NC(CCCCB(O)O)(C(=O)O)C1CCN(CCc2ccccc2)CC1 (centres unmarked) [Example 41-A, 2-amino-6-borono-2-(1-phenethylpiperidin-4-yl)hexanoic acid] | 251 to 1000 | 0.1 to 250
NC(CCCCB(O)O)(C(=O)O)C1CCN(C(=O)Nc2ccc(Cl)c(Cl)c2)CC1 (centres unmarked) [Example 42-A, 2-amino-6-borono-2-(1-(3,4-dichlorophenylcarbamoyl)piperidin-4-yl)hexanoic acid] | 251 to 1000 | 1000 to 2000
NC(CCCCB(O)O)(C(=O)O)C1CCN(C(=S)NCc2ccc(Cl)cc2)CC1 (centres unmarked) [Example 43-A, 2-amino-6-borono-2-(1-(4-chlorobenzylcarbamothioyl)piperidin-4-yl)hexanoic acid] | 251 to 1000 | 1000 to 2000
Cc1ccc(NC(=S)N2CCC(C(N)(CCCCB(O)O)C(=O)O)CC2)cc1Cl (centres unmarked) [Example 44-A, 2-amino-6-borono-2-(1-(3-chloro-4-methylphenylcarbamothioyl)piperidin-4-yl)hexanoic acid] | 251 to 1000 | 1000 to 2000
NC(CCCCB(O)O)(C(=O)O)C1CCN(C(=S)Nc2cccc3ccccc23)CC1 (centres unmarked) [Example 45-A, 2-amino-6-borono-2-(1-(naphthalen-1-ylcarbamothioyl)piperidin-4-yl)hexanoic acid] | 251 to 1000 | 1000 to 2000

Other lines, results leading:

IC50 (human arginase I (ARG I)) [nM] | IC50 (arginase II (ARG II)) [nM] | SMILES
0.1 to 250 | 0.1 to 250 | N[C@@H]1CC[C@H]([C@](N)(CCCCB(O)O)C(=O)O)C1 [15-A, (R)-2-amino-2-((1S,3R)-3-aminocyclopentyl)-6-boronohexanoic acid dihydrochloride]
0.1 to 250 | 0.1 to 250 | N[C@H]1CC[C@H]([C@](N)(CCCCB(O)O)C(=O)O)C1 [16-A, (R)-2-amino-2-((1S,3S)-3-aminocyclopentyl)-6-boronohexanoic acid dihydrochloride]
0.1 to 250 | 0.1 to 250 | N[C@H]1CC[C@@H]([C@@](N)(CCCCB(O)O)C(=O)O)C1 [17-A, (S)-2-amino-2-((1R,3S)-3-aminocyclopentyl)-6-boronohexanoic acid dihydrochloride]
251 to 1000 | 251 to 1000 | NC1CCC(C(N)(CCCCB(O)O)C(=O)O)CC1 (centres unmarked) [20-A, 2-amino-2-(4-aminocyclohexyl)-6-boronohexanoic acid dihydrochloride]
251 to 1000 | 251 to 1000 | NC(CCCCB(O)O)(C(=O)O)C1CCN(C2CCCCC2)CC1 (centres unmarked) [23-A, 2-amino-6-borono-2-(1-cyclohexylpiperidin-4-yl)hexanoic acid dihydrochloride]
251 to 1000 | 251 to 1000 | NC(CCCCB(O)O)(C(=O)O)C1CCN(C2CCCC2)CC1 (centres unmarked) [24-A, 2-amino-6-borono-2-(1-cyclopentylpiperidin-4-yl)hexanoic acid dihydrochloride]
0.1 to 250 | 251 to 1000 | CC1(C)CCC(N2CCC(C(N)(CCCCB(O)O)C(=O)O)CC2)CC1 (centres unmarked) [25-A, 2-amino-6-borono-2-[1-(4,4-dimethylcyclohexyl)piperidin-4-yl]hexanoic acid dihydrochloride]
251 to 1000 | 251 to 1000 | NC(CCCCB(O)O)(C(=O)O)C1CCN(C(=O)Nc2ccc(Cl)cc2)CC1 (centres unmarked) [32-A, 2-amino-6-borono-2-{1-[(4-chlorophenyl)-carbamoyl]piperidin-4-yl}hexanoic acid hydrochloride]
251 to 1000 | 251 to 1000 | NC(CCCCB(O)O)(C(=O)O)C1CCN(C(=S)Nc2ccc(Cl)cc2)CC1 (centres unmarked) [34-A, 2-amino-6-borono-2-(1-{[(4-chlorophenyl)amino]carbonothioyl}piperidin-4-yl)hexanoic acid hydrochloride]
251 to 1000 | 251 to 1000 | NC(CCCCB(O)O)(C(=O)O)C1CCN(C(=S)Nc2ccc(Cl)cc2)C1 [35-A, 2-amino-6-borono-2-((S)-1-(4-chlorophenylcarbamothioyl)-pyrrolidin-3-yl)hexanoic acid hydrochloride]
0.1 to 250 | 0.1 to 250 | NC(CCCCB(O)O)(C(=O)O)C1CCN(CCCc2ccc(Cl)cc2)CC1 (centres unmarked) [Example 46-A, 2-amino-6-borono-2-(1-(3-(4-chlorophenyl)propyl)piperidin-4-yl)hexanoic acid]
